{
  "source": "patent US20240300959A1",
  "about": "“BALASUBRAMIDE DERIVATIVE AND USE THEREOF IN PREPARATION OF MEDICINE FOR TREATING ACUTE LUNG INJURY” (Guangdong Pharmaceutical University, priority 2023, published 2024)",
  "key": {"[1]": {"tested_on": "TNF-α in bone marrow derived macrophages (BMDMs) stimulated by lipopolysaccharide", "experiment": "TNF-α ELISA in LPS-stimulated bone marrow derived macrophages", "assay_type": "cell-based, C57BL/6J mice", "settings": "for Percentage of TNF-α in a model group (%): LPS 100 ng/mL 3 h", "protocol": "(1) Collection of bone marrow derived macrophages (BMDMs): C57BL/6J mice were sacrificed by dislocation of cervical vertebra, completely soaked and sterilized with 75% ethanol and placed faceup on a mouse board to fix the four limbs, the skin of the hind limbs was cut, the limbs were cut at ankle joints and femoral joints, and muscles and knee joints were removed. Precooled serum-free DMEM was sucked with a 1 mL syringe to rinse the bone marrow until a leg bone turned white, a rinsing solution was filtered with a 200-mesh filter membrane and then collected into a 15 mL centrifuge tube, centrifugation was performed at 500×g for 5 min, a supernatant was discarded, and a cell precipitate was resuspended with 1 mL of a red blood cell lysis buffer. After stomatocytosis was performed for 1 min, 5 mL of DMEM was added to stop the stomatocytosis, centrifugation was performed at 500×g for 5 min, a supernatant was discarded, and cells at a lower layer were resuspended overnight with DMEM containing 10% of FBS. Monocytes were collected by centrifugation and then resuspended with a DMEM culture medium containing 20% of FBS, and M-CSF was added at a final concentration of 25 ng/mL. The cells were inoculated into a 96-well plate at a density of 6×10^5, cultured in a cell incubator with a CO2 concentration of 5% at 37° C. for 48 h, and then cultured by adding M-CSF with a final concentration of 25 ng/mL into each well for 48 h until the monocytes were subjected to adherent culture and differentiation to obtain macrophages.\nThe expression level of an inflammatory factor TNF-α in a cell supernatant was detected according to an operation instruction of a commercial ELISA kit, and the cell viability at different administration concentrations of (+)3C-20 was determined according to an operation instruction of a CCK-8 kit."}, "[2]": {"tested_on": "mice with acute lung injury caused by intratracheal instillation of lipopolysaccharide", "experiment": "Intratracheal LPS acute lung injury: wet/dry ratio, BALF TNF-α, total protein, myeloid cells", "assay_type": "in vivo, ICR mice", "protocol": "Grouping and administration of animals: 50 male ICR mice were randomly divided into 3 groups according to the body weight, including a control group, a model group and a 50 mg/kg (+)3C-20 group. Drug preparation, administration and a modeling method were the same as those in Example 7. After continuous preadministration for 3 days, intratracheal instillation of LPS was performed for modeling 2 h after the last administration. 6 h after the modeling, a part of the mice were directly sacrificed, the whole lungs were taken out and weighed to obtain wet weight, then the whole lungs were dried at 60° C. for 24 h and weighed to obtain dry weight, and the wet-dry weight ratio of each group was calculated by statistics. 6 h after the modeling, the remaining mice were subjected to bronchoalveolar lavage, and then bronchoalveolar lavage fluid (BALF) was collected. A lavage process was as follows: After being sacrificed, the mice were placed faceup to fix the four limbs, the skin of the neck was cut, the trachea was separated and cut at an appropriate position to obtain a small incision, a 16G needle with a flat tip was inserted into the trachea at a depth of 1 cm, the trachea and the needle stem were tied tightly to obtain an indwelling needle, 400 μL of precooled PBS was sucked with a 1 mL syringe and slowly pushed into the trachea, suction was performed for two times, the operations above were repeated, and recovered BALF was combined with a recovery efficiency of 70%-80%. The collected BALF was subjected to centrifugation at 500×g at 4° C. for 5 min, a supernatant was collected, the content level of total protein in the supernatant was determined by a BCA kit, and the expression level of an inflammatory factor TNF-α in the BALF supernatant was detected according to an operation instruction of a commercial ELISA kit.\nA bottom precipitate obtained after the centrifugation of the BALF was resuspended with 100 μL of an ACK buffer (Thermo A10492 stomatocytosis agent), evenly blown and subjected to standing for 1 min. Stomatocytosis was stopped with 1 mL of an FACS buffer (PBS containing 1% of FBS), centrifugation was performed at 500×g at 4° C. for 5 min, a supernatant was discarded, 100 μL of an FACS buffer was added, 1 μL of a CD16/CD32 Fc Block antibody (1:100) was added, and incubation was performed in the dark at 4° C. for 30 min. 1 mL of an FACS buffer was added, centrifugation was performed at 500×g at 4° C. for 5 min, a supernatant was discarded, and 100 μL of an FACS buffer was added for resuspension. Various fluorescent dyes (including mCD45-PerCP-Cy5.5, mCD11b-FITC, mF4/80-APC, mLy6C-PE, mLy6G-BV421 and FVS-780) were added at a ratio of 1:300, a single dye tube of each of the fluorescent dyes was prepared according to the above ratio, and incubation was performed in the dark at 4° C. for 30 min. 1 mL of an FACS buffer was added for resuspension, centrifugation was performed at 500×g at 4° C. for 5 min, and a supernatant was discarded. Washing was repeated for one time, centrifugation was performed to remove a supernatant, 500 μL of 1% paraformaldehyde was added for fixing in the dark for 30 min, centrifugation was performed at 500×g at 4° C. for 5 min, and a supernatant was discarded. 200 μL of an FACS buffer was added for resuspension, and a resulting suspension was stored in the dark at 4° C. Before loading on a machine, the stained cell suspension was diluted with an FACS buffer, transferred to a flow tube and detected according to an operation procedure of a CytoFlex flow cytometer. A flow gate strategy was as follows: Gain was first regulated according to each single dye tube, and compensation was properly regulated, where CD45^+, CD11b^+ and F4/80^+ were macrophages, CD45^+, CD11b^+ and Ly6G^+ were neutrophils, and CD45^+, CD11b^+ and Ly6C^+ were monocytes."}, "[3]": {"tested_on": "mice with acute lung injury caused by intratracheal instillation of lipopolysaccharide", "experiment": "Survival rate of mice with acute lung injury caused by intratracheal instillation of LPS", "assay_type": "in vivo, ICR mice", "settings": "50 mg/kg, LPS 20 mg/kg it, checked up to 72 h", "protocol": "Grouping and administration of animals: 45 male ICR mice were randomly divided into 5 groups according to the body weight, including a control group, a model group, a positive dexamethasone (5 mg/kg) group, a (+)3C-20 (10 mg/kg) group and a (+)3C-20 (50 mg/kg) group, with 9 mice in each group. Drug preparation, an administration method and a modeling method were the same as those in Example 7. With the time of intratracheal instillation of LPS as 0 h, the survival state of the mice was checked at the time points of 4 h, 12 h, 16 h, 20 h, 24 h, 36 h, 48 h, 60 h and 72 h, and a survival curve was drawn based on statistics. Results are shown in FIG. 13 (where compared with LPS (20 mg/kg), ***P is less than 0.001)."}, "[4]": {"settings": "50 mg/kg i.p. 3 days, 6 h after intratracheal LPS, model group = 100"}},
  "data": [
    {"smiles": "O=C(CCc1ccc(C(F)(F)F)cc1)O[C@@H]1C(=O)NCCc2c([nH]c3ccccc23)[C@H]1c1ccc(C(F)(F)F)cc1", "note": "[(+)-3C-20]", "values": [
      {"measurement": "Percentage of TNF-α in a model group (%)", "setting": "[1]; 0.1 μM", "value": "88.17 ± 7.91", "unit": "%"},
      {"measurement": "Percentage of TNF-α in a model group (%)", "setting": "[1]; 1 μM", "value": "86.35 ± 7.41", "unit": "%"},
      {"measurement": "Percentage of TNF-α in a model group (%)", "setting": "[1]; 2.5 μM", "value": "62.94 ± 8.54", "unit": "%"},
      {"measurement": "Percentage of TNF-α in a model group (%)", "setting": "[1]; 5 μM", "value": "35.12 ± 4.63", "unit": "%"},
      {"measurement": "effective dose for inhibiting the expression of TNF-α for the BMDMs", "setting": "[1]; LPS", "value": "2.5 μM or 5 μM"},
      {"measurement": "Level of TNF-α in BALF", "setting": "[2]; [4]", "value": 43.31},
      {"measurement": "Level of total protein in BALF", "setting": "[2]; [4]", "value": 73.44},
      {"measurement": "Wet/Dry ratio", "setting": "[2]; 50 mg/kg i.p. 3 days, lung, 6 h after intratracheal LPS", "value": 4.28},
      {"measurement": "Macrophage (%)", "setting": "[2]; 50 mg/kg i.p., BALF flow cytometry CD45+ CD11b+ F4/80+", "value": 0.82, "unit": "%"},
      {"measurement": "Monocyte (%)", "setting": "[2]; 50 mg/kg i.p., BALF flow cytometry CD45+ CD11b+ Ly6C+", "value": 4.13, "unit": "%"},
      {"measurement": "Neutrophil (%)", "setting": "[2]; 50 mg/kg i.p., BALF flow cytometry CD45+ CD11b+ Ly6G+", "value": 10.47, "unit": "%"},
      {"measurement": "survival rate of the model mice, in words", "setting": "[3]", "value": "can obviously improve the survival rate"}
    ]}
  ]
}
